Reference: US7470663B2, “Mixtures of insulin drug-oligomer conjugates comprising polyalkylene glycol, uses thereof, and methods of making same” (Biocon Limited, priority 2001, dated 2008)

Test system: normal fasted beagle dogs
Assay: Activity and inter-subject variability: glucose lowering after oral liquid dosage formulation
Assay type: in vivo
Conditions: fasted beagles, 0.25 mg/kg oral liquid; compared with polydispersed PEG7AVG-hexyl-insulin, monoconjugate (FIG. 21)
Description: The inter-subject variability may be measured by various methods as will be understood by those skilled in the art. The inter-subject variability is preferably calculated as follows. The area under a dose response curve (AUC) (i.e., the area between the dose-response curve and a baseline value) is determined for each subject. The average AUC for all subjects is determined by summing the AUCs of each subject and dividing the sum by the number of subjects. The absolute value of the difference between the subject's AUC and the average AUC is then determined for each subject. The absolute values of the differences obtained are then summed to give a value that represents the inter-subject variability. Lower values represent lower inter-subject variabilities and higher values represent higher inter-subject variabilities.
An effective animal model for evaluating formulations uses normal fasted beagle dogs. These dogs are given 0.25 mg/kg of insulin conjugates to evaluate the efficacy of various formulations.
The protocol for dog experiments calls for a blood glucose measurement at time zero just before a drug is administered. The oral liquid dosage formulation is then squirted into the back of the dog's mouth. In each case, the dogs received 0.25 mg/kg of this solution. Blood is drawn at 15, 30, 60 and 120 minutes and glucose levels are measured and graphed. The lower the glucose levels, the better the activity of the insulin conjugate.

Substance	activity (glucose lowering)	inter-subject variability
PEG10-hexyl-insulin, monoconjugate: non-polydispersed mixture of mPEG10-hexyl-insulin, monoconjugates	higher activity	less inter-subject variability
PEG7-hexyl-insulin, monoconjugate: human insulin monoconjugated at the B29 position with the activated mPEG7-hexyl oligomer of Example 18; non-polydispersed mixture	higher activity	less inter-subject variability
